In US8604194B2, “Salts of O-desmethyl-venlafaxine” (Lek Pharmaceuticals D.D., priority 2008, dated 2013):

Test: Solubility of desvenlafaxine salts in water at 23° C.
Conditions: for Solubility of desvenlafaxine salts in water: 23° C.

Row | Compound | solubility in water (result in words) (refers to Table 1) | Solubility of desvenlafaxine salts in water [mg/mL]
1 | CN(C)CC(c1ccc(O)cc1)C1(O)CCCCC1.O=C[C@H](O)[C@@H](O)[C@H](O)[C@H](O)C(=O)O (stereo not drawn) [O-desmethyl-venlafaxine glucuronate] | good solubility in water | 
2 | CN(C)CC(c1ccc(O)cc1)C1(O)CCCCC1.O=C(O)C1OC(O)C(O)C(O)C1O [glucuronate amorphous, desvenlafaxine D-glucuronate] |  | 338
3 | CN(C)CC(c1ccc(O)cc1)C1(O)CCCCC1.O.O=C(O)C1OC(O)C(O)C(O)C1O [glucuronate crystalline, desvenlafaxine D-glucuronate monohydrate] |  | 299
